Assay [1] concerns the target T1, CD38 NAD+ hydrolase activity in NH7-dCas9 cells (Jurkat clone) (Homo sapiens, UniProt P28907).
T1 construct: The assay utilized CD38 expressing NH7-dCas9 cells (Jurkat clone); host or cells: NH7-dCas9 cells (Jurkat clone)
T1 sequence (P28907 1-300): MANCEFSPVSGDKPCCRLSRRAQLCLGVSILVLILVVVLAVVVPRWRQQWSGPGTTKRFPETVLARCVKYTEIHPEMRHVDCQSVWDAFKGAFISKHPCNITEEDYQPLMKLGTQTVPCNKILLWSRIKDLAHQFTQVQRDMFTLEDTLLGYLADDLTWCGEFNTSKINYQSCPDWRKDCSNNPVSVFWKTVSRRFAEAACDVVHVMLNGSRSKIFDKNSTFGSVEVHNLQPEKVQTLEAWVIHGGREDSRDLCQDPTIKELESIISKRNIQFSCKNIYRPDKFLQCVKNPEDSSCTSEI
The assay is described as follows: Fluorescence-based NAD+ hydrolase activity assay with human T cell line NH7-dCas9 cells-Jurkat clone (Assay 1). The note with it: read-out: Assay 1 Arithmetic mean IC50. The procedure, abridged: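 Intact Jurkat NH7-dCas9 cells (1×10^6/well in PBS) exposed to eight final compound concentrations, 400 nM to 25.6 pM. Reaction started with 80 μM etheno-NAD+; fluorescence (ex 321, em 410 nm) read each minute for 1 h at 37 °C; rate from linear slope, IC50 from three independent experiments.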

In assay [2] the target is T2, recombinant human CD38 Protein (Homo sapiens, UniProt P28907).
T2 construct: purchased R&D System
T2 sequence (P28907 1-300): T1 sequence (P28907 1-300)
The assay is described as follows: Fluorescence-based NAD+ cyclase activity assay with human recombinant CD38 protein (Assay 2). The settings on record: read-out: Assay 2 Arithmetic mean IC50. The assay is classed as biochemical. The procedure, abridged:
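Recombinant human CD38 (125 ng/well) in sucrose-Tris buffer pH 7.4 with compound (8 final concentrations, 2 μM to 0.64 nM); reaction started with 150 μM NGD+.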

One may read the IC50 as the concentration needed to halve the response being measured. As to `Cc1cc(C(=O)Nc2cccnc2)nc(-n2ccnc2)n1` [Compound 49, 2-(1H-imidazol-1-yl)-6-methyl-N-(pyridin-3-yl)pyrimidine-4-carboxamide], the figures for the IC50 in assay [1] and in assay [2] were less than 0.001 µM and 0.001 to 0.05 µM, respectively.
For `Cc1cc(C(=O)Nc2ccncc2)nc(-n2ccnc2)n1` [Compound 50], in that order: less than 0.001 µM and 0.001 to 0.05 µM.
The corresponding values for `Cc1cc(C(=O)Nc2ccncc2)nc(-n2ccnc2)c1` [Compound 52, 6-(1H-imidazol-1-yl)-4-methyl-N-(pyridin-4-yl)picolinamide] are less than 0.001 µM and 0.001 to 0.05 µM.
`Cc1cc(C(=O)Nc2cccnc2)nc(-n2ccnc2)c1` [Compound 53]: the IC50 in assay [1] was less than 0.001 µM; in assay [2], 0.051 to 1 µM.
For `Cc1cc(C(=O)Nc2ccc(C(N)=O)nc2)nc(-n2ccnc2)c1` [Compound 54, N-(6-carbamoylpyridin-3-yl)-6-(1H-imidazol-1-yl)-4-methylpicolinamide], in that order: less than 0.001 µM and 0.001 to 0.05 µM.
Turning to `Cc1cc(C(=O)Nc2ccnc(C(N)=O)c2)nc(-n2ccnc2)c1` [Compound 55], the IC50 in assay [1] is less than 0.001 µM; in assay [2], 0.051 to 1 µM.
Take `CNC(=O)c1cc(NC(=O)c2cc(C)cc(-n3ccnc3)n2)ccn1` [Compound 56]: the results for the IC50 in assay [1] and in assay [2] were less than 0.001 µM and 0.051 to 1 µM, respectively.
On to `CNC(=O)c1ccc(NC(=O)c2cc(C)cc(-n3ccnc3)n2)cn1` [Compound 57], for which the IC50 is less than 0.001 µM in assay [1] and 0.001 to 0.05 µM in assay [2].
The corresponding values for `Cc1ccc(-n2ccnc2)nc1C(=O)Nc1cccnc1` [Compound 59, 6-(1H-imidazol-1-yl)-3-methyl-N-(pyridin-3-yl)picolinamide] are 0.001 to 0.05 µM and 0.051 to 1 µM.
On to `O=C(Nc1cccnc1)c1ccc(F)c(-n2ccnc2)n1` [Compound 61], for which the IC50 in assay [1] was 0.001 to 0.05 µM; in assay [2], 1 to 10 µM.
For `O=C(Nc1cccnc1)c1nc(-n2ccnc2)ccc1F` [Compound 62], in that order: 0.001 to 0.05 µM and 1 to 10 µM.
The corresponding values for `Nc1cc(C(=O)Nc2cccnc2)nc(-n2ccnc2)c1` [Compound 67] are less than 0.001 µM and 0.051 to 1 µM.
